Assays:
[1] = system: carrageenan-induced edema in the hind paw of the rat; assay: rat carrageenan edema test (hind paw); assay type: in vivo, rat (male Sprague-Dawley); details: for Change in paw volume (ml) from 0-3 hr: mean ± S.E.; for % Change in paw edema: vs control
Procedure: Vehicle alone is administered as a control. Sixty minutes after drug administration edema is induced by an injection of 0.1 ml. of a 1% carrageenan solution is saline into the subplantar tissue of the rat's right hind paw. Two minutes later, paw volume is measured volumetrically with a plethysmograph and again 3 hours later. The mean volume of swelling for the control group is calculated and compared to the test groups. Percent change in paw edema is calculated and analyzed statistically (unpaired, Student's t-test).

[2] = system: established adjuvant arthritis in rats; assay: established adjuvant arthritis, dosing on days 16, 17 and 18; details: rat
Procedure: Polyarthritis is induced in groups of 6-10 Sprague-Dawley rats weighing between 180-220 g. by a subcutaneous injection into the right paw of dessicated Mycobacterium butyricum or tuberculosis (0.5 mg/0.1 ml.) suspended in light mineral oil. […] Both hind paw volumes (ml.) are measured by mercury plethysmograph on day 0 or at the time of injection of the complete adjuvant. Increases in paw volume (viz. edema) are determined for both paws on days 4 and 16. The change in body weight from day 0 to day 16 is also calculated. Statistical analysis of differences in paw edemas and body weight is performed by using the unpaired. Student's t-test.
The changes in left paw edema are measured at the end of 19 days, 23 days and 30 days.

[3] = target: T1, prostaglandin synthetase (Ovis aries, UniProt P05979); assay: in vitro prostaglandin synthetase activity assay (PGE2 formation from 14C-arachidonic acid); assay type: biochemical, sheep; parameters: microsomal fraction of sheep vesicles; from tissue; host or cells: sheep seminal vesicles, microsomal fraction (105,000×g precipitate); details: for cpm (× 1000), in vitro PGE2 biosynthesis: sheep seminal vesicle microsomes
T1 sequence (P05979 25-600): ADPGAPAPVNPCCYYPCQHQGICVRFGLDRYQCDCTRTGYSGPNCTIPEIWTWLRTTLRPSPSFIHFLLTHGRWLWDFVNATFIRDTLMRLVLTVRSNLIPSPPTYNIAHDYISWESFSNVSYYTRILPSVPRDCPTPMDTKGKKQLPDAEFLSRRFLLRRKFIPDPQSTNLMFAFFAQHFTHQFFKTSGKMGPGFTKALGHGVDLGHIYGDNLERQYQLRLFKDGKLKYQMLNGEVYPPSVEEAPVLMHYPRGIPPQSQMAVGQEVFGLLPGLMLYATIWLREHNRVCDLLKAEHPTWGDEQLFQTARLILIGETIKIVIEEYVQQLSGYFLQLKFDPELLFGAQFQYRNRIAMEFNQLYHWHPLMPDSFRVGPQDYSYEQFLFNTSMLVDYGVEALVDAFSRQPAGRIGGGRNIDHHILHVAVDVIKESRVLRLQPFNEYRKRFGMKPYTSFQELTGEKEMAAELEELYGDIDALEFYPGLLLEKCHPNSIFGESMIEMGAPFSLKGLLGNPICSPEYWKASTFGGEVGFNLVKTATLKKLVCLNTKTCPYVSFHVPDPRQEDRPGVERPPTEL
Procedure: Frozen sheep seminal vesicles are cleaned of fat and connective tissue and then minced. Ten grams of the minced tissue are homogenized in 20 ml. of 0.125 M Na-EDTA buffer, pH 8.3, employing polytron homogenizer. The homogenate is then centrifuged at 1,200×g. for 10 minutes and the resulting supernatant filtered through two layers of cheese cloth. The filtrate is then centrifuged at 10,000×g. for 20 minutes. The supernatant is then centrifuged at 105,000×g. for 1 hour. The precipitate is dissolved once with Na-EDTA buffer and recentrifuged at 105,000×g. for 1 hour. The final microsomal fraction is then dissolved in 1.0 ml. of Na-EDTA buffer and stored in a freezer.
The incubation buffer medium (1.0 ml. total) consists of 500 μg of lyophilized bovine serum albumin, 5×10^-4 M hydroquinone, 1.0×10^-2 M reduced glutathione, 3×10^-6 M^14 C arachidonic acid (AA) in 0.02 ml. of methanol, 0.01 ml. of the tested drugs in methanol at the desired concentrations, and the microsomal fraction (1.2 mg. protein/ml. incubation medium). This medium is incubated for one hour at 37° C. At the end of this period, enzyme reaction is terminated by the addition of 0.25 ml. of 1 N HCl. 15 μg of non-radioactive Prostaglandin E2 (PGE2), Prostaglandin F2α (PGF2α) and AA (5 μg each) in an ethanol solution is then added to all of the acidified reaction mixtures. The reaction products are extracted with ethylacetate (2×2 ml.) and the total organic solution of 4 ml. is washed with 1.0 ml. of triple distilled water. 3.0 ml. of the total ethylacetate solution is removed and evaporated to dryness under nitrogen gas. The residue is then re-dissolvedin 50 μl. of 100% ethanol and spotted on silica gel GF plates and subjected to chromatograph. Only the organic phase of the ethyl acetate:water:iso-octane:acetic acid system (11:10:5:2) is used as solvent in the chromatography system.
After exposure to iodine vapor, the PGE2 and AA spots are scraped from the TLC plate, put into separate vials, and mixed with 10.0 ml. of Instagel scintillation cocktail for counting in a Nuclear-Chicago Mark II liquid scintillation counter.
Results are expressed as counts per minute (cpm), evidencing in vitro PGE2 biosynthesis.

[4] = oral 100 mg/kg, Table 1 group a
[5] = oral 180 mg/kg, Table 1 group c
[6] = oral 180 mg/kg, Table 1 group e

O=C(O)C=C1c2ccccc2C=Cc2ccccc21 [DCHA]
estimated ED50 (carrageenan paw edema) ([1]; oral): ~80 mg/kg
oral doses that inhibit carrageenan paw edema ([1]; oral): 10 to 180 mg/kg
Change in paw volume (ml) from 0-3 hr ([1]; oral 3 mg/kg, Table 1 group a): 0.63 ± 0.10 mL
% Change in paw edema ([1]; oral 3 mg/kg, Table 1 group a): -18%
Change in paw volume (ml) from 0-3 hr ([1]; oral 10 mg/kg, Table 1 group a): 0.61 ± 0.05 mL
% Change in paw edema ([1]; oral 10 mg/kg, Table 1 group a): -21%
Change in paw volume (ml) from 0-3 hr ([1]; oral 10 mg/kg, Table 1 group b): 0.53 ± 0.10 mL
% Change in paw edema ([1]; oral 10 mg/kg, Table 1 group b): -48%
Change in paw volume (ml) from 0-3 hr ([1]; oral 20 mg/kg, Table 1 group c): 0.84 ± 0.10 mL
% Change in paw edema ([1]; oral 20 mg/kg, Table 1 group c): -16%
Change in paw volume (ml) from 0-3 hr ([1]; oral 20 mg/kg, Table 1 group e): 1.08 ± 0.05 mL
% Change in paw edema ([1]; oral 20 mg/kg, Table 1 group e): -6%
Change in paw volume (ml) from 0-3 hr ([1]; oral 30 mg/kg, Table 1 group a): 0.48 ± 0.06 mL
% Change in paw edema ([1]; oral 30 mg/kg, Table 1 group a): -38%
Change in paw volume (ml) from 0-3 hr ([1]; oral 30 mg/kg, Table 1 group b): 0.58 ± 0.08 mL
% Change in paw edema ([1]; oral 30 mg/kg, Table 1 group b): -43%
Change in paw volume (ml) from 0-3 hr ([1]; oral 60 mg/kg, Table 1 group c): 0.47 ± 0.08 mL
% Change in paw edema ([1]; oral 60 mg/kg, Table 1 group c): -53%
Change in paw volume (ml) from 0-3 hr ([1]; oral 60 mg/kg, Table 1 group e): 0.82 ± 0.13 mL
% Change in paw edema ([1]; oral 60 mg/kg, Table 1 group e): -29%
Change in paw volume (ml) from 0-3 hr ([1]; oral 90 mg/kg, Table 1 group b): 0.44 ± 0.03 mL
% Change in paw edema ([1]; oral 90 mg/kg, Table 1 group b): -57%
Change in paw volume (ml) from 0-3 hr [1, 4]: 0.44 ± 0.07 mL
% Change in paw edema [1, 4]: -43%
Change in paw volume (ml) from 0-3 hr [1, 5]: 0.49 ± 0.06 mL
% Change in paw edema [1, 5]: -51%
Change in paw volume (ml) from 0-3 hr [1, 6]: 0.62 ± 0.04 mL
% Change in paw edema [1, 6]: -46%
return to pretreatment or higher edema levels ([2]; end of 30 days, 12 days after last dosing): no significant return to pretreatment or even higher edema levels
% Change from Control, left paw edema (day 0-19) ([2]; oral 10 mg/kg, days 16, 17, 18): -20%
% Change from Control, left paw edema (day 0-23) ([2]; oral 10 mg/kg, days 16, 17, 18): -15%
% Change from Control, left paw edema (day 0-30) ([2]; oral 10 mg/kg, days 16, 17, 18): -21%
Increase in left paw edema ml. (day 0-19) ([2]; oral 10 mg/kg, days 16, 17, 18): 0.78 ± 0.11 mL
Increase in left paw edema ml. (day 0-23) ([2]; oral 10 mg/kg, days 16, 17, 18): 0.82 ± 0.13 mL
Increase in left paw edema ml. (day 0-30) ([2]; oral 10 mg/kg, days 16, 17, 18): 1.20 ± 0.16 mL
% Change from Control, left paw edema (day 0-19) ([2]; oral 30 mg/kg, days 16, 17, 18): -26%
% Change from Control, left paw edema (day 0-23) ([2]; oral 30 mg/kg, days 16, 17, 18): -10%
% Change from Control, left paw edema (day 0-30) ([2]; oral 30 mg/kg, days 16, 17, 18): -29%
Increase in left paw edema ml. (day 0-19) ([2]; oral 30 mg/kg, days 16, 17, 18): 0.75 ± 0.11 mL
Increase in left paw edema ml. (day 0-23) ([2]; oral 30 mg/kg, days 16, 17, 18): 0.87 ± 0.16 mL
Increase in left paw edema ml. (day 0-30) ([2]; oral 30 mg/kg, days 16, 17, 18): 1.07 ± 0.17 mL
% Change from Control, left paw edema (day 0-19) ([2]; oral 90 mg/kg, days 16, 17, 18): -42%
% Change from Control, left paw edema (day 0-23) ([2]; oral 90 mg/kg, days 16, 17, 18): -24%
% Change from Control, left paw edema (day 0-30) ([2]; oral 90 mg/kg, days 16, 17, 18): -32%
Increase in left paw edema ml. (day 0-19) ([2]; oral 90 mg/kg, days 16, 17, 18): 0.59 ± 0.06 mL
Increase in left paw edema ml. (day 0-23) ([2]; oral 90 mg/kg, days 16, 17, 18): 0.73 ± 0.10 mL
Increase in left paw edema ml. (day 0-30) ([2]; oral 90 mg/kg, days 16, 17, 18): 1.03 ± 0.11 mL
effect on left paw edema of rats with established adjuvant arthritis ([2]; oral, days 16, 17, 18): significant decrease in the left paw edema
cpm (× 1000), in vitro PGE2 biosynthesis ([3]; 30 μg/ml): 6.6 ± .3 cpm (× 1000)
cpm (× 1000), in vitro PGE2 biosynthesis ([3]; 50 μg/ml): 5.2 ± .4 cpm (× 1000)
cpm (× 1000), in vitro PGE2 biosynthesis ([3]; 60 μg/ml): 5.1 ± .2 cpm (× 1000)
cpm (× 1000), in vitro PGE2 biosynthesis ([3]; 100 μg/ml): 3.0 ± .1 cpm (× 1000)
cpm (× 1000), in vitro PGE2 biosynthesis ([3]; 120 μg/ml): 3.3 ± .4 cpm (× 1000)
cpm (× 1000), in vitro PGE2 biosynthesis ([3]; 150 μg/ml): 2.1 ± .3 cpm (× 1000)
cpm (× 1000), in vitro PGE2 biosynthesis ([3]; 200 μg/ml): 2.0 ± .1 cpm (× 1000)
IC50 ([3]; calculated from Table 6, read-out: 50% inhibitory concentration (converted)): 259 µM
inhibitory effect on prostaglandin synthetase activity ([3]; in words): does not have an appreciable inhibitory effect on prostaglandin synthetase activity
